Measured values taken from ChEMBL document CHEMBL5625248, “Identification of unique indolylcyanoethylenyl sulfonylanilines as novel structural scaffolds of potential antibacterial agents” (Eur J Med Chem, 2023).
Converted amounts (≈) assume the structure as drawn.

What was measured:
Type in all cases: functional
Escherichia coli [1] = test: Antibacterial activity against Escherichia coli ATCC 25922 assessed as inhibition of bacterial growth incubated for 18 hrs by two fold broth microdilution assay
Acinetobacter baumannii = test: Antibacterial activity against Acinetobacter baumannii assessed as inhibition of bacterial growth incubated for 18 hrs by two fold broth microdilution assay
Staphylococcus aureus [2] = test: Antibacterial activity against Staphylococcus aureus ATCC 25923 assessed as inhibition of bacterial growth incubated for 18 hrs by two fold broth microdilution assay
Enterococcus faecalis = test: Antibacterial activity against Enterococcus faecalis assessed as inhibition of bacterial growth incubated for 18 hrs by two fold broth microdilution assay
Klebsiella pneumoniae = test: Antibacterial activity against Klebsiella pneumoniae assessed as inhibition of bacterial growth incubated for 18 hrs by two fold broth microdilution assay
Staphylococcus aureus [3] = test: Antibacterial activity against methicilin-resistant Staphylococcus aureus N315 assessed as inhibition of bacterial growth incubated for 18 hrs by two fold broth microdilution assay
Staphylococcus aureus [4] = test: Antibacterial activity against Staphylococcus aureus assessed as inhibition of bacterial growth incubated for 18 hrs by two fold broth microdilution assay
Pseudomonas aeruginosa [5] = test: Antibacterial activity against Pseudomonas aeruginosa ATCC 27853 assessed as inhibition of bacterial growth incubated for 18 hrs by two fold broth microdilution assay
Staphylococcus aureus [6] = test: Antibacterial activity against Staphylococcus aureus ATCC 29213 assessed as inhibition of bacterial growth incubated for 18 hrs by two fold broth microdilution assay
Escherichia coli [7] = test: Antibacterial activity against Escherichia coli assessed as inhibition of bacterial growth incubated for 18 hrs by two fold broth microdilution assay
Pseudomonas aeruginosa [8] = test: Antibacterial activity against Pseudomonas aeruginosa assessed as inhibition of bacterial growth incubated for 18 hrs by two fold broth microdilution assay

| SMILES | MIC (Escherichia coli [1]) | MIC (Acinetobacter baumannii) | MIC (Staphylococcus aureus [2]) | MIC (Enterococcus faecalis) | MIC (Klebsiella pneumoniae) | MIC (Staphylococcus aureus [3]) | MIC (Staphylococcus aureus [4]) | MIC (Pseudomonas aeruginosa [5]) | MIC (Staphylococcus aureus [6]) | MIC (Escherichia coli [7]) | MIC (Pseudomonas aeruginosa [8]) |
| --- | --- | --- | --- | --- | --- | --- | --- | --- | --- | --- | --- |
| CCn1cc(/C=C(\C#N)S(=O)(=O)c2ccc(NC(C)=O)cc2)c2ccccc21 | 128 µg/mL (≈ 325 µM) | 64 µg/mL (≈ 163 µM) | 4 µg/mL (≈ 10.2 µM) | 16 µg/mL (≈ 40.7 µM) | 32 µg/mL (≈ 81.3 µM) | 64 µg/mL (≈ 163 µM) | 128 µg/mL (≈ 325 µM) | 8 µg/mL (≈ 20.3 µM) | 4 µg/mL (≈ 10.2 µM) | 128 µg/mL (≈ 325 µM) | 64 µg/mL (≈ 163 µM) |
| N#C/C(=C\c1c[nH]c2ccc([N+](=O)[O-])cc12)S(=O)(=O)c1ccc(N)cc1 | 8 µg/mL (≈ 21.7 µM) | 64 µg/mL (≈ 174 µM) | 128 µg/mL (≈ 347 µM) | 128 µg/mL (≈ 347 µM) | 4 µg/mL (≈ 10.9 µM) | 128 µg/mL (≈ 347 µM) | 64 µg/mL (≈ 174 µM) | 16 µg/mL (≈ 43.4 µM) | 64 µg/mL (≈ 174 µM) | 128 µg/mL (≈ 347 µM) | 64 µg/mL (≈ 174 µM) |
| N#C/C(=C\c1c[nH]c2cc(F)ccc12)S(=O)(=O)c1ccc(N)cc1 | 8 µg/mL (≈ 23.4 µM) | 8 µg/mL (≈ 23.4 µM) | 4 µg/mL (≈ 11.7 µM) | 8 µg/mL (≈ 23.4 µM) | 64 µg/mL (≈ 187 µM) | 16 µg/mL (≈ 46.9 µM) | 4 µg/mL (≈ 11.7 µM) | 8 µg/mL (≈ 23.4 µM) | 128 µg/mL (≈ 375 µM) | 256 µg/mL (≈ 750 µM) | 4 µg/mL (≈ 11.7 µM) |
| CC(=O)Nc1ccc(S(=O)(=O)/C(C#N)=C/c2cn(CC3CCCCC3)c3ccccc23)cc1 | 32 µg/mL (≈ 69.3 µM) | 32 µg/mL (≈ 69.3 µM) | 64 µg/mL (≈ 139 µM) | 32 µg/mL (≈ 69.3 µM) | 128 µg/mL (≈ 277 µM) | 64 µg/mL (≈ 139 µM) | 32 µg/mL (≈ 69.3 µM) | 2 µg/mL (≈ 4.33 µM) | 64 µg/mL (≈ 139 µM) | 256 µg/mL (≈ 555 µM) | 64 µg/mL (≈ 139 µM) |
| CC(=O)Nc1ccc(S(=O)(=O)/C(C#N)=C/c2c[nH]c3cccc(Cl)c23)cc1 | 16 µg/mL (≈ 40 µM) | 16 µg/mL (≈ 40 µM) | 128 µg/mL (≈ 320 µM) | 32 µg/mL (≈ 80 µM) | 4 µg/mL (≈ 10 µM) | 64 µg/mL (≈ 160 µM) | 32 µg/mL (≈ 80 µM) | 32 µg/mL (≈ 80 µM) | 32 µg/mL (≈ 80 µM) | 128 µg/mL (≈ 320 µM) | 64 µg/mL (≈ 160 µM) |
| CC(=O)Nc1ccc(S(=O)(=O)/C(C#N)=C/c2cn(CC(=O)N3CCOCC3)c3ccccc23)cc1 | 128 µg/mL (≈ 260 µM) | 128 µg/mL (≈ 260 µM) | 64 µg/mL (≈ 130 µM) | 64 µg/mL (≈ 130 µM) | 128 µg/mL (≈ 260 µM) | 16 µg/mL (≈ 32.5 µM) | 256 µg/mL (≈ 520 µM) | 256 µg/mL (≈ 520 µM) | 2 µg/mL (≈ 4.06 µM) | 256 µg/mL (≈ 520 µM) | 64 µg/mL (≈ 130 µM) |
| CC(=O)Nc1ccc(S(=O)(=O)/C(C#N)=C/c2cn(CC(=O)N3CCCC3)c3ccccc23)cc1 | 128 µg/mL (≈ 269 µM) | 64 µg/mL (≈ 134 µM) | 128 µg/mL (≈ 269 µM) | 128 µg/mL (≈ 269 µM) | 64 µg/mL (≈ 134 µM) | 256 µg/mL (≈ 537 µM) | 128 µg/mL (≈ 269 µM) | 128 µg/mL (≈ 269 µM) | 16 µg/mL (≈ 33.6 µM) | 64 µg/mL (≈ 134 µM) | 64 µg/mL (≈ 134 µM) |
| N#C/C(=C\c1cn(Cc2ccc(Cl)c(Cl)c2)c2ccccc12)S(=O)(=O)c1ccc(N)cc1 | 0.5 µg/mL (≈ 1.04 µM) | 4 µg/mL (≈ 8.29 µM) | 16 µg/mL (≈ 33.2 µM) | 128 µg/mL (≈ 265 µM) | 4 µg/mL (≈ 8.29 µM) | 16 µg/mL (≈ 33.2 µM) | 128 µg/mL (≈ 265 µM) | 64 µg/mL (≈ 133 µM) | 4 µg/mL (≈ 8.29 µM) | 256 µg/mL (≈ 531 µM) | 31 µg/mL (≈ 64.3 µM) |
| CC(C)=CCn1cc(/C=C(\C#N)S(=O)(=O)c2ccc(N)cc2)c2ccccc21 | 8 µg/mL (≈ 20.4 µM) | 0.5 µg/mL (≈ 1.28 µM) | 16 µg/mL (≈ 40.9 µM) | 128 µg/mL (≈ 327 µM) | 8 µg/mL (≈ 20.4 µM) | 32 µg/mL (≈ 81.7 µM) | 64 µg/mL (≈ 163 µM) | 8 µg/mL (≈ 20.4 µM) | 128 µg/mL (≈ 327 µM) | 8 µg/mL (≈ 20.4 µM) | 2 µg/mL (≈ 5.11 µM) |
| C=CCn1cc(/C=C(\C#N)S(=O)(=O)c2ccc(N)cc2)c2ccccc21 | 16 µg/mL (≈ 44 µM) | 64 µg/mL (≈ 176 µM) | 4 µg/mL (≈ 11 µM) | 8 µg/mL (≈ 22 µM) | 8 µg/mL (≈ 22 µM) | 32 µg/mL (≈ 88 µM) | 64 µg/mL (≈ 176 µM) | 8 µg/mL (≈ 22 µM) | 4 µg/mL (≈ 11 µM) | 8 µg/mL (≈ 22 µM) | 64 µg/mL (≈ 176 µM) |
| CC(=O)Nc1ccc(S(=O)(=O)/C(C#N)=C/c2cn(CC=C(C)C)c3ccccc23)cc1 | 8 µg/mL (≈ 18.5 µM) | 8 µg/mL (≈ 18.5 µM) | 8 µg/mL (≈ 18.5 µM) | 4 µg/mL (≈ 9.23 µM) | 16 µg/mL (≈ 36.9 µM) | 64 µg/mL (≈ 148 µM) | 4 µg/mL (≈ 9.23 µM) | 8 µg/mL (≈ 18.5 µM) | 8 µg/mL (≈ 18.5 µM) | 8 µg/mL (≈ 18.5 µM) | 64 µg/mL (≈ 148 µM) |
| CC(=O)Nc1ccc(S(=O)(=O)/C(C#N)=C/c2cn(Cc3ccc(F)cc3F)c3ccccc23)cc1 | 32 µg/mL (≈ 65.1 µM) | 16 µg/mL (≈ 32.6 µM) | 32 µg/mL (≈ 65.1 µM) | 256 µg/mL (≈ 521 µM) | 256 µg/mL (≈ 521 µM) | 64 µg/mL (≈ 130 µM) | 8 µg/mL (≈ 16.3 µM) | 64 µg/mL (≈ 130 µM) | 32 µg/mL (≈ 65.1 µM) | 128 µg/mL (≈ 260 µM) | 64 µg/mL (≈ 130 µM) |
| N#C/C(=C\c1c[nH]c2cc(Br)ccc12)S(=O)(=O)c1ccc(N)cc1 | 128 µg/mL (≈ 318 µM) | 8 µg/mL (≈ 19.9 µM) | 16 µg/mL (≈ 39.8 µM) | 128 µg/mL (≈ 318 µM) | 16 µg/mL (≈ 39.8 µM) | 128 µg/mL (≈ 318 µM) | 256 µg/mL (≈ 636 µM) | 32 µg/mL (≈ 79.5 µM) | 32 µg/mL (≈ 79.5 µM) | 32 µg/mL (≈ 79.5 µM) | 32 µg/mL (≈ 79.5 µM) |
| CCCCn1cc(/C=C(\C#N)S(=O)(=O)c2ccc(N)cc2)c2ccccc21 | 4 µg/mL (≈ 10.5 µM) | 256 µg/mL (≈ 675 µM) | 2 µg/mL (≈ 5.27 µM) | 4 µg/mL (≈ 10.5 µM) | 1 µg/mL (≈ 2.64 µM) | 256 µg/mL (≈ 675 µM) | 2 µg/mL (≈ 5.27 µM) | 4 µg/mL (≈ 10.5 µM) | 1 µg/mL (≈ 2.64 µM) | 4 µg/mL (≈ 10.5 µM) | 2 µg/mL (≈ 5.27 µM) |
| CCCCCn1cc(/C=C(\C#N)S(=O)(=O)c2ccc(NC(C)=O)cc2)c2ccccc21 | 16 µg/mL (≈ 36.7 µM) | 64 µg/mL (≈ 147 µM) | 8 µg/mL (≈ 18.4 µM) | 256 µg/mL (≈ 588 µM) | 8 µg/mL (≈ 18.4 µM) | 256 µg/mL (≈ 588 µM) | 128 µg/mL (≈ 294 µM) | 64 µg/mL (≈ 147 µM) | 16 µg/mL (≈ 36.7 µM) | 64 µg/mL (≈ 147 µM) | 64 µg/mL (≈ 147 µM) |
| N#C/C(=C\c1cn(Cc2cccc(Cl)c2)c2ccccc12)S(=O)(=O)c1ccc(N)cc1 | 32 µg/mL (≈ 71.4 µM) | 32 µg/mL (≈ 71.4 µM) | 64 µg/mL (≈ 143 µM) | 128 µg/mL (≈ 286 µM) | 256 µg/mL (≈ 571 µM) | 128 µg/mL (≈ 286 µM) | 128 µg/mL (≈ 286 µM) | 64 µg/mL (≈ 143 µM) | 32 µg/mL (≈ 71.4 µM) | 256 µg/mL (≈ 571 µM) | 64 µg/mL (≈ 143 µM) |
| CC(=O)Nc1ccc(S(=O)(=O)/C(C#N)=C/c2cn(CC(=O)N3CCCCC3)c3ccccc23)cc1 | 256 µg/mL (≈ 522 µM) | 64 µg/mL (≈ 130 µM) | 2 µg/mL (≈ 4.08 µM) | 128 µg/mL (≈ 261 µM) | 64 µg/mL (≈ 130 µM) | 128 µg/mL (≈ 261 µM) | 256 µg/mL (≈ 522 µM) | 256 µg/mL (≈ 522 µM) | 128 µg/mL (≈ 261 µM) | 128 µg/mL (≈ 261 µM) | 8 µg/mL (≈ 16.3 µM) |
| CN(C)CCn1cc(/C=C(\C#N)S(=O)(=O)c2ccc(N)cc2)c2ccccc21 | 256 µg/mL (≈ 649 µM) | 16 µg/mL (≈ 40.6 µM) | 2 µg/mL (≈ 5.07 µM) | 64 µg/mL (≈ 162 µM) | 128 µg/mL (≈ 324 µM) | 128 µg/mL (≈ 324 µM) | 2 µg/mL (≈ 5.07 µM) | 32 µg/mL (≈ 81.1 µM) | 8 µg/mL (≈ 20.3 µM) | 128 µg/mL (≈ 324 µM) | 64 µg/mL (≈ 162 µM) |
